Test results taken from patent US20050239656A1, “Pyridine compounds or salts thereof and herbicides containing the same” (priority 2002, published 2005).

system: rice; assay: Test Example 1: foliage treatment, upland pot test; assay type: in vivo, Oryza sativa L.; details: crop, active ingredient 1000 g/ha, observed 18th to 23rd day, 0 = non-treated, 100 = complete kill
Summary of the method: (§1)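 Upland pot test, foliar. Soybean 0.1–0.4 / wheat 1.3–2.4 / rice 1.2–2.6 / barnyardgrass 1.3–2.8 leaf stage at spraying; 500 L/ha carrier, 0.1% (v/v) spreader. Visual % control, 0 untreated to 100 dead, days 18–23.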

Row | SMILES | Growth controlling degree (%) Rice [%]
1 | CC(C)C(c1cnccc1C(F)(F)F)N(C)C(=O)C=Cc1cccc2ccccc12 (centres unmarked) [I-187] | 30

system: prickly sida; assay: Test Example 1: foliage treatment, upland pot test; assay type: in vivo, Sida spinosa L.; details: active ingredient 1000 g/ha, observed 18th to 23rd day, 0 = non-treated, 100 = complete kill

Row | SMILES | Growth controlling degree (%) Prickly sida [%]
2 | CC(C)C(c1cnccc1C(F)(F)F)N(C)C(=O)C=Cc1cccc2ccccc12 (centres unmarked) [I-187] | 90

system: corn; assay: Test Example 1: foliage treatment, upland pot test; assay type: in vivo, Zea mays L.; details: crop, active ingredient 1000 g/ha, observed 18th to 23rd day, 0 = non-treated, 100 = complete kill
Summary of the method: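 In this upland pot foliage test, corn plants at 2.1 to 3.2 leaf stages were sprayed by a small size sprayer. The spray was a conventionally formulated wettable powder or emulsifiable concentrate weighed to a set active ingredient amount, diluted in water at 500 L/ha, plus 0.1% (v/v) agricultural spreader. Visual assessment on days 18 to 23 gave growth controlling degree (%), where 0 equals untreated and 100 means complete kill.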

Row | SMILES | Growth controlling degree (%) Corn [%]
3 | CC(C)C(c1cnccc1C(F)(F)F)N(C)C(=O)C=Cc1cccc2ccccc12 (centres unmarked) [I-187] | 80

system: wheat; assay: Test Example 1: foliage treatment, upland pot test; assay type: in vivo, Triticum spp.; details: crop, active ingredient 1000 g/ha, observed 18th to 23rd day, 0 = non-treated, 100 = complete kill
From the text: Upland field soil was put into a 1/170,000 ha pot, and seed of various plants were sown. Then, when the plants reached predetermined leaf stages ((1) barnyardgrass: 1.3 to 2.8 leaf stages, (2) crabgrass: 1.0 to 2.8 leaf stages, (3) green foxtail: 1.3 to 2.6 leaf stages, (4) redroot pigweed: 0.1 to 1.2 leaf stages, (5) prickly sida: 0.1 to 1.2 leaf stages, (6) velvetleaf: 0.1 to 1.2 leaf stages, (7) tall morningglory: 0.1 to 1.5 leaf stages, (8) rice: 1.2 to 2.6 leaf stages, (9) wheat: 1.3 to 2.4 leaf stages, (10) corn, 2.1 to 3.2 leaf stages, (11) soybean: 0.1 to 0.4 leaf stage), a wettable powder or emulsifiable concentrate having the compound of the present invention formulated in accordance with a usual formulation method, was weighed so that the active ingredient would be a predetermined amount, and diluted with water in an amount of 500 L/ha. To the diluted solution, 0.1% (v/v) of agricultural spreader was added. The herbicide thus adjusted was applied by a small size sprayer for foliage treatment. On the 18th to 23rd days after the application of the herbicide, the growth of the respective plants was visually observed, and the herbicidal effects were evaluated by the growth controlling degrees (%) ranging from 0 (equivalent to the non-treated plot) to 100 (complete kill), whereby the results shown in Table 3, were obtained.

Row | SMILES | Growth controlling degree (%) wheat [%]
4 | CC(C)C(c1cnccc1C(F)(F)F)N(C)C(=O)C=Cc1cccc2ccccc12 (centres unmarked) [I-187] | 10

system: crabgrass; assay: Test Example 1: foliage treatment, upland pot test; assay type: in vivo, Digitaria sanguinalis L.; details: active ingredient 1000 g/ha, observed 18th to 23rd day, 0 = non-treated, 100 = complete kill

Row | SMILES | Growth controlling degree (%) Crabgrass [%]
5 | CC(C)C(c1cnccc1C(F)(F)F)N(C)C(=O)C=Cc1cccc2ccccc12 (centres unmarked) [I-187] | 95

system: japanese bulrush; assay: Test Example 3: paddy pot test, application under submerged conditions; assay type: in vivo, Scirpus juncoides; details: active ingredient 500 g/ha; submerged application at 0.5 leaf stage; visually observed 14 days after application; 0 = non-treated, 100 = complete kill
Summary of the method: (§2)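 Visual growth-control rating (0 = untreated, 100 = complete kill) 14 days after treatment. The formulated compound, as a diluted wettable powder or emulsifiable concentrate, went into 3–4 cm flood water at a predetermined active-ingredient dose once the weeds reached 0.5 leaf stage (wapato: primary leaf stage).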

Row | SMILES | Growth controlling degree (%) Japanese bulrush [%]
6 | CC(C)C(c1cnccc1C(F)(F)F)N(C)C(=O)C=Cc1cccc2ccccc12 (centres unmarked) [I-187] | 10

system: japanese ribbon wapato; assay: as above; assay type: in vivo, Sagittaria pygniaea; details: active ingredient 500 g/ha; submerged application at primary leaf stage; visually observed 14 days after application; 0 = non-treated, 100 = complete kill
Summary of the method: as §2

Row | SMILES | Growth controlling degree (%) Japanese ribbon wapato [%]
7 | CC(C)C(c1cnccc1C(F)(F)F)N(C)C(=O)C=Cc1cccc2ccccc12 (centres unmarked) [I-187] | 20

system: redroot pigweed; assay: Test Example 1: foliage treatment, upland pot test; assay type: in vivo, Amaranthus retroflexus L.; details: active ingredient 1000 g/ha, observed 18th to 23rd day, 0 = non-treated, 100 = complete kill

Row | SMILES | Growth controlling degree (%) Redroot pigweed [%]
8 | CC(C)C(c1cnccc1C(F)(F)F)N(C)C(=O)C=Cc1cccc2ccccc12 (centres unmarked) [I-187] | 80

system: barnyardgrass; assay: Test Example 3: paddy pot test, application under submerged conditions; assay type: in vivo, Echinochloa crus-galli L.; details: active ingredient 500 g/ha; submerged application at 0.5 leaf stage; visually observed 14 days after application; 0 = non-treated, 100 = complete kill
Summary of the method: as §2

Row | SMILES | Growth controlling degree (%) Barnyardgrass [%]
9 | CC(C)C(c1cnccc1C(F)(F)F)N(C)C(=O)C=Cc1cccc2ccccc12 (centres unmarked) [I-187] | 100

system: rice (var. Nihonbare); assay: Test Example 3: paddy pot test, transplanted rice; assay type: in vivo, Oryza sativa L.; details: active ingredient 500 g/ha, applied 4th day after transplantation, visually observed 21st day after application, 0 = non-treated, 100 = complete kill
Summary of the method: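 Rice (var. Nihonbare) at 2 leaf stage transplanted 3 cm deep into puddled paddy soil under 3–4 cm flooding; on day 4 after transplanting, diluted wettable powder or emulsifiable concentrate applied by pipette under submerged conditions at a set active-ingredient dose. Growth scored visually 21 days after application, 0 (untreated) to 100 (complete kill) %.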

Row | SMILES | Growth controlling degree (%) Rice [%]
10 | CC(C)C(c1cnccc1C(F)(F)F)N(C)C(=O)C=Cc1cccc2ccccc12 (centres unmarked) [I-187] | 0

system: green foxtail; assay: Test Example 1: foliage treatment, upland pot test; assay type: in vivo, Setaria viridis L.; details: active ingredient 1000 g/ha, observed 18th to 23rd day, 0 = non-treated, 100 = complete kill

Row | SMILES | Growth controlling degree (%) Green foxtail [%]
11 | CC(C)C(c1cnccc1C(F)(F)F)N(C)C(=O)C=Cc1cccc2ccccc12 (centres unmarked) [I-187] | 60

system: soybean; assay: Test Example 1: foliage treatment, upland pot test; assay type: in vivo, Glycine max Merr.; details: crop, active ingredient 1000 g/ha, observed 18th to 23rd day, 0 = non-treated, 100 = complete kill
Summary of the method: as §1

Row | SMILES | Growth controlling degree (%) Soybean [%]
12 | CC(C)C(c1cnccc1C(F)(F)F)N(C)C(=O)C=Cc1cccc2ccccc12 (centres unmarked) [I-187] | 60

system: velvetleaf; assay: Test Example 1: foliage treatment, upland pot test; assay type: in vivo, Abutilon theophrasti MEDIC.; details: active ingredient 1000 g/ha, observed 18th to 23rd day, 0 = non-treated, 100 = complete kill

Row | SMILES | Growth controlling degree (%) Velvetleaf [%]
13 | CC(C)C(c1cnccc1C(F)(F)F)N(C)C(=O)C=Cc1cccc2ccccc12 (centres unmarked) [I-187] | 40

system: barnyardgrass; assay: Test Example 1: foliage treatment, upland pot test; assay type: in vivo, Echinochloa crus-galli L.; details: active ingredient 1000 g/ha, observed 18th to 23rd day, 0 = non-treated, 100 = complete kill
Summary of the method: as §1

Row | SMILES | Growth controlling degree (%) Barnyardgrass [%]
14 | CC(C)C(c1cnccc1C(F)(F)F)N(C)C(=O)C=Cc1cccc2ccccc12 (centres unmarked) [I-187] | 60
